# Source: paper PMC8201324, “Pyrazoles and Pyrazolines as Anti-Inflammatory Agents” (Molecules, 2021)
# Marks after values point to notes of the source that are not given here.
# Tests used:
# [1] = test system: acetic acid-induced writhing; test: Anti-nociception writhing test (acetic acid); type: in vivo, Fisher 344 rats; settings: 0.0057 mmol/kg body weight i.p., 0.6% acetic acid after 30 min
# Text: The acetic acid-induced writhing test is a quick, simple and reproducible method, despite the fact that it lacks specialization. […] The animals (Fisher 344 rats), were housed under standard conditions, and received a diet of commercial food pellets and water ad libitum during the maintenance, but were entirely fasted during the experiment period. Both sexes were used, while pregnant females were excluded. Each group was composed of 6–15 animals. Our studies were in accordance with recognized guidelines on animal experimentation (guidelines for the care and use of laboratory animals published by the Greek Government 160/1991, based on EU regulations 86/609). Rats were kept in the Centre of the School of Veterinary Medicine (EL54 BIO42), Aristotle University of Thessaloniki, which is registered by the official state veterinary authorities (presidential degree 56/2013, in harmony with the European Directive 2010/63/EEC). The experimental protocols were approved by the Animal Ethics Committee of the Prefecture of Central Macedonia. For the study of the analgesic activity of the tested compounds, pain is provoked with acetic acid. Animals were divided in three five-membered groups, according to our reported method. After treatment with the tested compounds (0.0057 mmol/kg body weight; intraperitoneally) in the first group, the second group was used as a positive control (aspirin; 0.0057 mmol/kg body weight i.p.) and the third group served as the control in which saline was administered (negative control). After 30 min, 0.6% acetic acid (1 mL/kg body weight) was injected i.p. The number of writhes was recorded for each animal every 5 min during a subsequent 30 min period (Table 6).
# [2] = test system: adjuvant-induced disease (AID); test: Adjuvant-induced disease (AID); type: in vivo, Fisher 344 rats; settings: AID rats
# Description: Adjuvant-induced disease (AID) is a good experimental model for rheumatoid arthritis, and is often used in testing agents for anti-inflammatory activity. The compound was administered intraperitoneally on the 1st day, i.e., the day of the administration of Freund’s adjuvant (FA), and once every other day for the following 24 days. Adjuvant arthritis was developed about 14 days post-FA administration. […] The effect of the tested compound on inflammation is shown in Table 7 and the time course of adjuvant arthritis development expressed as arthritic score is shown in Figure 2. In the same experimental model, Indomethacin (IMA) was used as a reference compound.
# (§1) The animals (Fisher 344 rats), were housed under standard conditions, and received a diet of commercial food pellets and water ad libitum during the maintenance, but were entirely fasted during the experiment period. Both sexes were used, while pregnant females were excluded. Each group was composed of 6–15 animals. Our studies were in accordance with recognized guidelines on animal experimentation (guidelines for the care and use of laboratory animals published by the Greek Government 160/1991, based on EU regulations 86/609). Rats were kept in the Centre of the School of Veterinary Medicine (EL54 BIO42), Aristotle University of Thessaloniki, which is registered by the official state veterinary authorities (presidential degree 56/2013, in harmony with the European Directive 2010/63/EEC). The experimental protocols were approved by the Animal Ethics Committee of the Prefecture of Central Macedonia.
# Rats were divided into four groups (five-membered groups of animals were used): groups one, two and three were injected intradermally with 0.1 mL Freund’s adjuvant (FA) into the base of the tails of the animals; group three was the FA control rats; group four was injected with saline, used as an absolute control. Compound 2d (group 1) and indomethacin (group 2) were injected i.p. once every other day for the following 24 days in a dose of 0.00057 mmol/mL/kg body weight (Table 7). Adjuvant arthritis was developed circa 14 days post-FA administration. Arthritic score was measured every 2 days from the commencement (14th day) day. Arthritic score was assessed on the 24th day. For quantification of arthritis (arthritic score); a single point was assigned for each wrist or ankle area and an additional point was given for each involved phalangeal joint, up to a maximum of five points per extremity.
# On the 24th day and at least 12 h after the last injection, animals were administered zoxazolamine i.p. […], as an aqueous suspension with a few drops of Tween 80, and the duration of the paralysis were assessed (Table 7) (Figure 2). The experiment was conducted in duplicate.
# [3] = test system: carrageenin-induced rat paw edema; test: Inhibition of the carrageenin-induced rat paw edema; type: in vivo, Fisher 344 rats; settings: 0.0057 mmol/Kg body weight, intraperitoneally, 3.5 h after carrageenin
# Text: The carrageenin-induced rat paw edema assay was used, as a model of acute inflammation. Inflammation induced by carrageenan is acute, non-immune, well-researched, and highly reproducible, and is described as a biphasic event. Cardinal signs of inflammation—edema, hyperalgesia, and erythema, are developed immediately following subcutaneous injection, resulting from the action of pro-inflammatory agents: bradykinin, histamine, tachykinins, complement reactive oxygen and nitrogen species. It is known that NSAIDs act during the second phase of prostaglandin release, presenting weak activity in the first phase of histamine and serotonin release.
# as §1
# Carrageenin in water as an intradermal injection of 0.1 mL 2% was used for the induction of the edema in the right hind paw of the rats, according to the previously reported method. Animals were divided in five-membered groups and the tested compounds were suspended in water (0.0057 mmol/kg body weight), with a few drops of Tween 80, ground in a mortar before administered intraperitoneally simultaneously. The rats were euthanized 3.5 h after carrageenin injection. Comparison of the change in paw weight with that in control animals (treated with water) was expressed as a percent inhibition of the oedema CPE% values using indomethacin (IMA) as a reference compound. Values CPE% are the mean from two different experiments with a standard error of the mean less than 10% (Table 5). Student’s T test was applied.
# [4] = Reducing activity of the stable radical DPPH; type: biochemical
# Description: The novel derivatives were studied for their interaction with the stable 2,2-diphenyl-1-picrylhydrazyl free radical (DPPH) at concentrations 50 µM, 100 µM, 200 µM and after 20 and 60 min (Table 3). This assay is based on the reduction of the DPPH by transferring an electron from the antioxidant. […] However, it seems that the interaction is dependent on the concentration and on the reaction time. From this point of view, it can be concluded that the acetyl pyrazolyl derivatives 2c and 2f seem to present the highest scavenging activities. An increase in concentration favors the activity. […] As for compounds 2a, 2b, 2c and 2f, activity seems to be time dependent at 200 µM. […] The presence of a chlorine group in 2e pyrazoline leads to an activity increase (compared to 2d) in concentration 200 µM. The acetyl derivative 2f presents better activity than 2b at 200 µM.
# (§2) A stock solution (1% DMSO in the appropriate buffer with the tested compound diluted under sonication) was prepared for the in vitro assays from which several dilutions were made with the appropriate buffer. The in vitro experiments were performed at least in triplicate, and the standard deviation of absorbance was less than 10% of the mean.
# A stock solution (10 mM) of the novel derivatives in DMSO was prepared and an equal volume of it was added to a solution of DPPH in absolute ethanol to reach final concentrations 50, 100 µM and 200 µM. The absorbance was recorded at 517 nm, after 20 and 60 min at room temperature (Table 3).
# [5] = ABTS+ decolorization assay for antioxidant activity; type: biochemical
# Text: Pyrazolines 2d and 2e which are the most lipophilic compounds, showing antioxidant activity using the ABTS radical cation (ABTS^•+) generated through potassium persulfate by oxidation with no participation of an intermediary radical. This reduction is completed by adding electron-donating antioxidants. It seems that lipophilicity influences the activity, since both present high lipophilicity values.
# as §2
# The ABTS radical cation (ABTS^+•) was generated by mixing ABTS stock solution in water (7 mM) with potassium persulfate (2.45 mM) and left in the dark at room temperature for 12–16 h before use. The results are recorded immediately after the mixing solutions at 734 nm. The results were compared to the appropriate standard inhibitor Trolox (Table 4).
# [6] = Inhibition of linoleic acid lipid peroxidation (AAPH); type: biochemical
# Description: For the lipid peroxidation study, 2,2′-azobis(2-amidinopropane) hydrochloride (AAPH) was used for the generation of peroxyl radicals. The generation of the conjugated diene hydroperoxide derived from the oxidation of sodium linoleate in an aqueous solution was recorded at 234 nm. The compounds presented high anti-lipid peroxidation activity (78–100%) (Table 4). Pyrazolines 2a and 2b present lower anti-lipid peroxidation activity (89% and 78% respectively).
# as §2
# AAPH was used as free radical initiator of alkylperoxyl radicals. The ability of the compounds to prevent the oxidation of linoleic acid sodium salt from alkylperoxyl radicals was recorded at 234 nm. Trolox was used as reference (93%) (Table 4).
# [7] = 0.00057 mmol/mL/kg i.p. every other day for 24 days
structure (smiles),measurement,setting,value
"CC(=O)Oc1ccccc1C(=O)O [Aspirin, acetylsalicylic acid, reference compound]",Writhing Inhibition (%),[1],77 ** %
"COc1ccc2c(c1)c(CC(=O)O)c(C)n2C(=O)c1ccc(Cl)cc1 [Indomethacin, reference compound]",Percent change in body weight (g ± SD),[2]; [7],8.3 ± 0.2 g
same,Percent change in liver weight (g ± SD),[2]; [7],6.3 ± 0.4 g
same,Zoxazolamine paralysis (minutes ± SD),"[2]; 24th day, zoxazolamine i.p.",217 ± 17 min
same,CPE % (reduction in the rat paw edema induced by carrageenin),[3],47 ** %
"CC(Cc1ccc(O)c(O)c1)C(C)Cc1ccc(O)c(O)c1 (stereo not drawn) [NDGA, Nordihydroguaretic acid, reference compound]",RA% 50 µM 20 min,"[4]; 50 µM, 20 min",81%
same,RA% 50 µM 60 min,"[4]; 50 µM, 60 min",83%
same,RA% 100 µM 20 min,"[4]; 100 µM, 20 min",87%
same,RA% 200 µM 20 min,"[4]; 200 µM, 20 min",94%
same,RA% 200 µM 60 min,"[4]; 200 µM, 60 min",96%
"Cc1c(C)c2c(c(C)c1O)CCC(C)(C(=O)O)O2 (stereo not drawn) [Trolox, 6-Hydroxy-2,5,7,8-tetramethyl-chroman-2-carboxylic acid, reference compound]",ABTS^+ % 100 µM (decolorization activity),[5],91%
same,AAPH% 100 µM (anti-lipid peroxidation),[6],93%
